According to publication PMC9518264, “Design and synthesis of novel quinazolinone-based derivatives as EGFR inhibitors with antitumor activity” (Journal of Enzyme Inhibition and Medicinal Chemistry, 2022):

How the values were obtained:
CCRF-CEM = assay: cells; format: cell-based; conditions: Homo sapiens, 10 μM, read-out: growth inhibition % (GI%)
K-562 = assay: cells; format: cell-based; conditions: Homo sapiens, K562; K-562; 10 μM; read-out: growth inhibition % (GI%)
MOLT-4 = assay: cells; format: cell-based; conditions: Homo sapiens; MOLT-4; 10 μM; read-out: growth inhibition % (GI%)
RPMI-8226 = assay: cells; format: cell-based; conditions: Homo sapiens; RPMI-8226; 10 μM; read-out: growth inhibition % (GI%)
SR = assay: cells; format: cell-based; conditions: Homo sapiens, 10 μM, read-out: growth inhibition % (GI%)
A549/ATCC = assay: cells; format: cell-based; conditions: Homo sapiens; A549/ATCC; 10 μM; read-out: growth inhibition % (GI%)
EKVX = assay: cells; format: cell-based; conditions: Homo sapiens, 10 μM, read-out: growth inhibition % (GI%)
HOP-62 = assay: cells; format: cell-based; conditions: Homo sapiens; HOP-62; 10 μM; read-out: growth inhibition % (GI%)
HOP-92 = assay: cells; format: cell-based; conditions: Homo sapiens; HOP-92; 10 μM; read-out: growth inhibition % (GI%)
NCI-H226 = assay: cells; format: cell-based; conditions: Homo sapiens; NCI-H226; 10 μM; read-out: growth inhibition % (GI%)
NCI-H322M = assay: cells; format: cell-based; conditions: Homo sapiens, 10 μM, read-out: growth inhibition % (GI%)
NCI-H522 = assay: cells; format: cell-based; conditions: Homo sapiens; NCI-H522; 10 μM; read-out: growth inhibition % (GI%)
COLO-205 = assay: cells; format: cell-based; conditions: Homo sapiens; COLO-205; 10 μM; read-out: growth inhibition % (GI%)
HCC-2998 = assay: cells; format: cell-based; conditions: Homo sapiens; HCC-2998; 10 μM; read-out: growth inhibition % (GI%)
HCT-116 = assay: cells; format: cell-based; conditions: Homo sapiens; HCT-116; 10 μM; read-out: growth inhibition % (GI%)
HCT-15 = assay: cells; format: cell-based; conditions: Homo sapiens; HCT-15; 10 μM; read-out: growth inhibition % (GI%)
KM12 = assay: cells; format: cell-based; conditions: Homo sapiens; KM12; 10 μM; read-out: growth inhibition % (GI%)
SW-620 = assay: cells; format: cell-based; conditions: Homo sapiens; SW-620; 10 μM; read-out: growth inhibition % (GI%)
SF-268 = assay: cells; format: cell-based; conditions: Homo sapiens; SF-268; 10 μM; read-out: growth inhibition % (GI%)
SF-539 = assay: cells; format: cell-based; conditions: Homo sapiens; SF-539; 10 μM; read-out: growth inhibition % (GI%)
SNB-19 = assay: cells; format: cell-based; conditions: Homo sapiens; SNB-19; 10 μM; read-out: growth inhibition % (GI%)
SNB-75 = assay: cells; format: cell-based; conditions: Homo sapiens; SNB-75; 10 μM; read-out: growth inhibition % (GI%)
U251 = assay: cells; format: cell-based; conditions: Homo sapiens, U-251; U251; 10 μM; read-out: growth inhibition % (GI%)
LOX IMIV = assay: cells; format: cell-based; conditions: Homo sapiens, 60 cell; LOX IMIV; 10 μM; read-out: growth inhibition % (GI%)
MALME-3M = assay: cells; format: cell-based; conditions: Homo sapiens; MALME-3M; 10 μM; read-out: growth inhibition % (GI%)
SK-MEL-2 = assay: cells; format: cell-based; conditions: Homo sapiens; SK-MEL-2; 10 μM; read-out: growth inhibition % (GI%)
SK-MEL-28 = assay: cells; format: cell-based; conditions: Homo sapiens; SK-MEL-28; 10 μM; read-out: growth inhibition % (GI%)
SK-MEL-5 = assay: cells; format: cell-based; conditions: Homo sapiens; SK-MEL-5; 10 μM; read-out: growth inhibition % (GI%)
UACC-257 = assay: cells; format: cell-based; conditions: Homo sapiens; UACC-257; 10 μM; read-out: growth inhibition % (GI%)
IGROV1 = assay: cells; format: cell-based; conditions: Homo sapiens, IGROV-1; IGROV1; 10 μM; read-out: growth inhibition % (GI%)
OVCAR-4 = assay: cells; format: cell-based; conditions: Homo sapiens; OVCAR-4; 10 μM; read-out: growth inhibition % (GI%)
OVCAR-5 = assay: cells; format: cell-based; conditions: Homo sapiens; OVCAR-5; 10 μM; read-out: growth inhibition % (GI%)
NCI/ADR-RES = assay: cells; format: cell-based; conditions: Homo sapiens, 10 μM, read-out: growth inhibition % (GI%)
SK-OV-3 = assay: cells; format: cell-based; conditions: Homo sapiens; SK-OV-3; 10 μM; read-out: growth inhibition % (GI%)
786-0 = assay: cells; format: cell-based; conditions: Homo sapiens; 786-0; 10 μM; read-out: growth inhibition % (GI%)
A498 = assay: cells; format: cell-based; conditions: Homo sapiens; A498; 10 μM; read-out: growth inhibition % (GI%)
ACHN = assay: cells; format: cell-based; conditions: Homo sapiens, 10 μM, read-out: growth inhibition % (GI%)
TK-10 = assay: cells; format: cell-based; conditions: Homo sapiens; TK-10; 10 μM; read-out: growth inhibition % (GI%)
DU-145 = assay: cells; format: cell-based; conditions: Homo sapiens; DU-145; 10 μM; read-out: growth inhibition % (GI%)
MCF7 = assay: cells; format: cell-based; conditions: Homo sapiens; MCF7; 10 μM; read-out: growth inhibition % (GI%)
MDA-MB-231/ATCC = assay: NCI 60 cell line antiproliferative screening (SRB), Breast cancer; format: cell-based; conditions: Homo sapiens, MDA-MB-231, read-out: growth inhibition % (GI%)
HS 578T = assay: cells; format: cell-based; conditions: Homo sapiens; HS 578T; 10 μM; read-out: growth inhibition % (GI%)
BT-549 = assay: cells; format: cell-based; conditions: Homo sapiens; BT-549; 10 μM; read-out: growth inhibition % (GI%)
T-47D = assay: cells; format: cell-based; conditions: Homo sapiens, T47D; T-47D; 10 μM; read-out: growth inhibition % (GI%)
[1] = system: panel of 60 tumour cell lines; assay: NCI 60 cell line antiproliferative screening (SRB), whole panel or subpanels (means, ranges, words); format: cell-based, human; conditions: Homo sapiens, 60 cell, mean over the cell line panel; 10 μM; read-out: Mean growth inhibition % (mean GI%)
OVCAR-3 = assay: NCI 60 cell line antiproliferative screening (SRB), Ovarian cancer; conditions: Homo sapiens, OVCAR-3, read-out: growth inhibition % (GI%)

**Q.** For O=C(CSc1nc2ccccc2c(=O)n1-c1ccccc1)NN=Cc1ccc(N2CCCCC2)cc1 [6g, 2-((4-oxo-3-phenyl-3,4-dihydroquinazolin-2-yl)thio)-N'-(4-(piperidin-1-yl)benzylidene) acetohydrazide], which inhibition at 10 µM (CCRF-CEM) is on record?
**A.** Its inhibition at 10 µM is under 15%.

**Q.** And the inhibition at 10 µM (K-562)?
**A.** The inhibition at 10 µM was 26.8%.

**Q.** What about the inhibition at 10 µM (MOLT-4) of the same molecule?
**A.** Its inhibition at 10 µM is 28.5%.

**Q.** And the inhibition at 10 µM (RPMI-8226)?
**A.** The inhibition at 10 µM was 17.6%.

**Q.** What about the inhibition at 10 µM (SR) of the same molecule?
**A.** Its inhibition at 10 µM is 24.7%.

**Q.** And the inhibition at 10 µM (A549/ATCC)?
**A.** Its inhibition at 10 µM is 15.1%.

**Q.** And the inhibition at 10 µM (EKVX)?
**A.** Its inhibition at 10 µM is 20.4%.

**Q.** And the inhibition at 10 µM (HOP-62)?
**A.** The inhibition at 10 µM was under 15%.

**Q.** What about the inhibition at 10 µM (HOP-92) of the same molecule?
**A.** The inhibition at 10 µM was 19.5%.

**Q.** And the inhibition at 10 µM (NCI-H226)?
**A.** The inhibition at 10 µM was under 15%.

**Q.** And the inhibition at 10 µM (NCI-H322M)?
**A.** The inhibition at 10 µM was under 15%.

**Q.** What about the inhibition at 10 µM (NCI-H522) of the same molecule?
**A.** The inhibition at 10 µM was 15.3%.

**Q.** What about the inhibition at 10 µM (COLO-205) of the same molecule?
**A.** The inhibition at 10 µM was under 15%.

**Q.** And the inhibition at 10 µM (HCC-2998)?
**A.** Its inhibition at 10 µM is under 15%.

**Q.** What about the inhibition at 10 µM (HCT-116) of the same molecule?
**A.** The inhibition at 10 µM was 15.5%.

**Q.** What about the inhibition at 10 µM (HCT-15) of the same molecule?
**A.** Its inhibition at 10 µM is 16.2%.

**Q.** What about the inhibition at 10 µM (KM12) of the same molecule?
**A.** The inhibition at 10 µM was under 15%.

**Q.** And the inhibition at 10 µM (SW-620)?
**A.** The inhibition at 10 µM was under 15%.

**Q.** And the inhibition at 10 µM (SF-268)?
**A.** The inhibition at 10 µM was under 15%.

**Q.** What about the inhibition at 10 µM (SF-539) of the same molecule?
**A.** Its inhibition at 10 µM is under 15%.

**Q.** And the inhibition at 10 µM (SNB-19)?
**A.** The inhibition at 10 µM was under 15%.

**Q.** And the inhibition at 10 µM (SNB-75)?
**A.** Its inhibition at 10 µM is 19.9%.

**Q.** And the inhibition at 10 µM (U251)?
**A.** Its inhibition at 10 µM is under 15%.

**Q.** What about the inhibition at 10 µM (LOX IMIV) of the same molecule?
**A.** The inhibition at 10 µM was under 15%.

**Q.** What about the inhibition at 10 µM (MALME-3M) of the same molecule?
**A.** The inhibition at 10 µM was under 15%.

**Q.** What about the inhibition at 10 µM (SK-MEL-2) of the same molecule?
**A.** Its inhibition at 10 µM is under 15%.

**Q.** What about the inhibition at 10 µM (SK-MEL-28) of the same molecule?
**A.** Its inhibition at 10 µM is under 15%.

**Q.** What about the inhibition at 10 µM (SK-MEL-5) of the same molecule?
**A.** The inhibition at 10 µM was under 15%.

**Q.** And the inhibition at 10 µM (UACC-257)?
**A.** The inhibition at 10 µM was under 15%.

**Q.** What about the inhibition at 10 µM (IGROV1) of the same molecule?
**A.** Its inhibition at 10 µM is under 15%.

**Q.** What about the inhibition at 10 µM (OVCAR-4) of the same molecule?
**A.** Its inhibition at 10 µM is under 15%.

**Q.** What about the inhibition at 10 µM (OVCAR-5) of the same molecule?
**A.** The inhibition at 10 µM was under 15%.

**Q.** What about the inhibition at 10 µM (NCI/ADR-RES) of the same molecule?
**A.** The inhibition at 10 µM was under 15%.

**Q.** What about the inhibition at 10 µM (SK-OV-3) of the same molecule?
**A.** The inhibition at 10 µM was under 15%.

**Q.** What about the inhibition at 10 µM (786-0) of the same molecule?
**A.** Its inhibition at 10 µM is under 15%.

**Q.** And the inhibition at 10 µM (A498)?
**A.** The inhibition at 10 µM was under 15%.

**Q.** What about the inhibition at 10 µM (ACHN) of the same molecule?
**A.** Its inhibition at 10 µM is under 15%.

**Q.** And the inhibition at 10 µM (TK-10)?
**A.** Its inhibition at 10 µM is under 15%.

**Q.** What about the inhibition at 10 µM (DU-145) of the same molecule?
**A.** Its inhibition at 10 µM is under 15%.

**Q.** What about the inhibition at 10 µM (MCF7) of the same molecule?
**A.** Its inhibition at 10 µM is 16.2%.

**Q.** What about the inhibition at 10 µM (MDA-MB-231/ATCC) of the same molecule?
**A.** The inhibition at 10 µM was under 15%.

**Q.** And the inhibition at 10 µM (HS 578T)?
**A.** The inhibition at 10 µM was under 15%.

**Q.** What about the inhibition at 10 µM (BT-549) of the same molecule?
**A.** Its inhibition at 10 µM is under 15%.

**Q.** What about the inhibition at 10 µM (T-47D) of the same molecule?
**A.** Its inhibition at 10 µM is under 15%.

**Q.** And the inhibition at 10 µM [1]?
**A.** The inhibition at 10 µM was 4.28%.

**Q.** What about the inhibition at 10 µM (OVCAR-3) of the same molecule?
**A.** Its inhibition at 10 µM is under 15%.
